Measurements taken from patent US10035766B2, “Compositions for preventing and/or treating lysosomal storage disorders” (Amicus Therapeutics, Inc., priority 2009, dated 2018).
Residue numbers refer to the chain shown, from its start. Counter-ions that a name gives are not always drawn. Like-named read-outs stand apart in the source and are kept apart here.

Experiments:
GCase = target: T1, GCase (Homo sapiens, UniProt P04062); test: GCase activity enhancement (EC50, Emax) of Table 2B; assay type: cell-based
T1 sequence (P04062 40-536): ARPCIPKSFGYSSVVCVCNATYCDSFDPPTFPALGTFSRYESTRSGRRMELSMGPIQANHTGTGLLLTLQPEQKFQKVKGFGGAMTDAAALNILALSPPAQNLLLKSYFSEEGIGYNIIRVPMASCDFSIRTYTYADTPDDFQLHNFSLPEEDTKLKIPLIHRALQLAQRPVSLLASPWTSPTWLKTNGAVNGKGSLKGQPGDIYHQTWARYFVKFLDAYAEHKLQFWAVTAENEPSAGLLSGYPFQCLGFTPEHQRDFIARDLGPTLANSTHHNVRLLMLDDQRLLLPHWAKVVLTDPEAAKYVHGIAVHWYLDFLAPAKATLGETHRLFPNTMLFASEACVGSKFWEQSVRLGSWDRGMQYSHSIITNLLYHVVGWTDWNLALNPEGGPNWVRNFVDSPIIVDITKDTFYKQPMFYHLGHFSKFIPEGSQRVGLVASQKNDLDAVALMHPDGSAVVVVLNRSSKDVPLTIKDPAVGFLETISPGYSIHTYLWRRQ

lysosomal GCase = target: T2, lysosomal GCase (Homo sapiens, UniProt P04062); test: In situ lysosomal GCase inhibition and washout in fibroblasts from a normal subject (PFBFDβGlu substrate); assay type: cell-based; conditions: for in situ washout: after 16-24 hours at IC90, single exponential fit of activity recovery over 8 hours; for IC50: fibroblasts, compound 16-24 hours, substrate 1 hour
T2 construct: fibroblasts established from a normal subject; endogenous in cells; host or cells: fibroblasts established from a normal subject
T2 sequence (P04062 40-536): T1 sequence (P04062 40-536)
Protocol: The effect of the novel compounds of the present invention on lysosomal GCase activity was assayed in situ using fibroblasts established from a normal subject. Cells seeded in 48-well plates were incubated with the indicated concentrations of compound for 16-24 hours. For the dose-response assays, cells were incubated with the in situ substrate 5-(pentafluorobenzoylamino)fluorescein di-β-D-glucopyranoside (PFBFDβGlu) for 1 hour and subsequently lysed to determine the extent of substrate hydrolysis in the presence of compound. […] Inhibition was determined as the ratio of activity in the presence of compound to that in the absence of compound. […] Cells were washed extensively and incubated in drug-free medium to allow net compound efflux from cells. Cells were then tested for lysosomal GCase activity at 2 hour intervals over a total period of 8 hours following compound removal. The increase in activity over time was fitted with a single exponential function to determine the compound's washout time.

[1] = target: T3, recombinant human GCase (rhGCase; Cerezyme®) (Homo sapiens, UniProt P04062, R534H); test: In vitro enzyme inhibition assay (4-MU-β-D-Glc hydrolysis) for IC50 and Ki; assay type: biochemical; conditions: for Ki: Cheng-Prusoff from IC50
T3 construct: purchased Genzyme Corp
T3 sequence (P04062 40-536 R534H): T1 sequence (P04062 40-536) with R495H
Protocol: The binding affinity (defined here by Ki binding constant) of GCase for novel compounds of the present invention were empirically determined using enzyme inhibition assays. In brief, the enzyme inhibition assays used monitored the ability of a test compound to bind and prevent the hydrolysis of a fluorogenic substrate in a concentration-dependent manner. Specifically, the enzyme activity of recombinant human GCase (rhGCase; Cerezyme®, Genzyme Corp.) was measured using the 4-methylumbelliferyl-β-D-glucopyranoside (4-MU-β-D-Glc) fluorogenic substrate in the absence or in the presence of varying amounts of each test compound. […] The enzyme inhibition assays were performed at both pH 7.0 (endoplasmic reticulum pH) and at pH 5.2 (lysosomal pH) to gain insight into the binding affinity (i.e., potency) of compounds for GCase in the endoplasmic reticulum and lysososome.
Various concentrations of test compounds were prepared in buffer “M” consisting of 50 mM sodium phosphate buffer with 0.25% sodium taurocholate at pH 7.0 and pH 5.2. Enzyme (Cerezyme®, a recombinant form of the human enzyme β-glucocerebrosidase) was also diluted in the same buffer “M” at pH 7.0 and pH 5.2. […] Five microliters of diluted enzyme was added to 15 μl of the various inhibitor concentrations or buffer “M” alone and incubated at 37° C. for 1 hour with 50 μl of the substrate preparation to assess β-glucosidase activity at pH 7.0 and pH 5.2. […] Fluorescence was measured on a plate reader for 1 sec/well using 355 nm excitation and 460 nm emission.

[2] = pH 5.2 (lysosomal pH), read-out: Ki (μM) pH 5.2
[3] = pH 5.2 (lysosomal pH), read-out: IC50 (μM) pH 5.2
[4] = pH 7.0 (endoplasmic reticulum pH), read-out: Ki (μM) pH 7.0
[5] = pH 7.0 (endoplasmic reticulum pH), read-out: IC50 (μM) pH 7.0

| Structure (SMILES) | Emax (GCase) [%] | in situ washout (lysosomal GCase) [h] | inhibition of GCase activity (lysosomal GCase) | Ki [1, 2] [µM] | IC50 [1, 3] [µM] | Ki [1, 4] [µM] | IC50 [1, 5] [µM] | IC50 (lysosomal GCase) [nM] | EC50 (GCase) [nM] | Emax (%) (GCase) | GCase activity enhancement compared to reference compound IFG-tartrate (GCase; same maximum level as IFG-tartrate at much lower concentration) |
| --- | --- | --- | --- | --- | --- | --- | --- | --- | --- | --- | --- |
| CC(C)(O)[C@H]1CNC[C@@H](O)[C@@H]1O [(3R,4R,5S)-5-(2-hydroxypropan-2-yl)piperidine-3,4-diol] | 109 ± 3.6 |  |  |  |  |  |  |  |  |  |  |
| CC(O)[C@H]1CNC[C@@H](O)[C@@H]1O (single isomer, unassigned) |  |  | inhibited GCase activity |  |  |  |  |  |  |  | concentration-dependent increase in GCase activity |
| C[C@@H](O)[C@H]1CNC[C@@H](O)[C@@H]1O [Compound 9, (3R,4R,5R)-5((R)-1-Hydroxyethyl)piperdine 3,4-diol] |  | 10.5 ± 1.75 |  | 0.044 ± 0.0017 | 0.107 ± 0.0041 | 0.01 ± 0.0004 | 0.02 ± 0.0008 | 518 ± 22 | 490 ± 60 | 83.7 ± 2.9 |  |
| C[C@H](F)[C@H]1CNC[C@@H](O)[C@@H]1O [Compound 13, (3R,4R,5R)-5((S)-1-Fluoroethyl)piperdine 3,4-diol Hydrochloride] | 92.8 ± 6.6 | 2.7 ± 0.12 |  | 0.0498 ± 0.0015 | 0.0946 ± 0.0028 | 0.009 ± 0.0004 | 0.0171 ± 0.0008 | 650 ± 172 | 44 ± 5 |  |  |
| O[C@@H]1[C@@H]([C@H](O)c2ccccc2)CNC[C@H]1O [(3R,4R,5R)-5-((S)-hydroxy(phenyl)methyl)-piperidine-3,4-diol] | 72.1 ± 3.5 |  |  |  |  |  |  |  |  |  |  |

Further lines, with some results ahead:

| Emax (GCase) [%] | in situ washout (lysosomal GCase) [h] | inhibition of GCase activity (lysosomal GCase) | Ki [1, 2] [µM] | IC50 [1, 3] [µM] | Ki [1, 4] [µM] | IC50 [1, 5] [µM] | IC50 (lysosomal GCase) [nM] | EC50 (GCase) [nM] | Emax (%) (GCase) | Structure (SMILES) | GCase activity enhancement compared to reference compound IFG-tartrate (GCase; same maximum level as IFG-tartrate at much lower concentration) |
| --- | --- | --- | --- | --- | --- | --- | --- | --- | --- | --- | --- |
| 99.3 ± 4.9 | 12 ± 1.65 |  |  |  |  |  |  |  |  | CC(O)C1CNCC(O)C1O (single isomer, unassigned) [Compound 10] |  |
| 89.7 ± 3.5 | 3.7 ± 0.63 |  | 0.016 ± 0.0007 | 0.038 ± 0.0016 | 0.004 ± 0.0001 | 0.007 ± 0.0003 | 61 ± 19 | 26 ± 3 |  | C[C@@H](F)[C@H]1CNC[C@@H](O)[C@@H]1O [Compound 14, (3R,4R,5R)-5((R)-(1-Fluoroethyl)piperdine 3,4-diol Hydrochloride] |  |
